Square brackets hold non-standard residues; d marks the D form. Peptide text beside a SMILES is read from it.
What was measured:
[1] = MALDI-TOF imaging brain biodistribution after intranasal administration, TBI mice; format: in vivo, mouse (3xTg-AD
Protocol: The Aβ1-6A2V(D) was administered to 3xTg-AD and 24-month-old WT TBI underwent mice by repeated intranasal administration as described in [39]. In brief, mice were acclimatized for 2 weeks before the surgery and the treatment. Aβ1-6A2V(D) was administered to mice at 50 mg/kg body weight (b.w.) (about 5 µL/nostril/mouse, 10 µL total/each treatment session/mouse) starting at 10 min post-TBI and every 48 h up to 6 days post-injury, using a 20 µL pipette and gel loading pipette tip. At each treatment session, the mice were held in place for 30 seconds after the first 5 µL administration and then left free to move in a cage for 30 seconds before administering the remaining treatment/vehicle. Weight was assessed before each intranasal administration. Neurological functions were monitored longitudinally and plasma levels of neurofilament light (NfL) were assessed at sacrifice as detailed in the Supplementary information (sections ‘Behavioural test’ and ‘Plasmatic neurofilament light’). Seven days after surgery, the mice were sacrificed, the brain was removed, and ipsilateral cortical areas were dissected out, immediately frozen on dry ice, and stored at −80 °C until their use for biochemical and C. elegans studies. At 4 h, 24 h, 48 h, and 72 h after surgery, a subset of mice (n = 3) was sacrificed, and their brains were removed, frozen immediately in liquid nitrogen, and stored at −80 °C until matrix-assisted laser desorption/ionization (MALDI)-imaging analysis. The investigators were blinded to treatment allocation during the assessment of the results.
Fig. 3 Biodistribution of Aβ1-6A2V(D) in brain parenchyma of 3xTg-AD injured mice after intranasal administration. A Mice were subjected to TBI, randomly distributed into two groups, and treated intranasally 10 min post-injury with either a single dose of Aβ1-6A2V(D) (50 mg/kg b.w.) or saline (vehicle). MALDI-imaging analyses were performed 4-h, 24-h, 48-h, and 72-h post-administration. B Representative images of Aβ1-6A2V(D) biodistribution assessed by MALDI-TOF and imaged as a heatmap (red > Aβ1-6A2V(D) concentration > deep purple).
Studies were carried out as described by Catania et al. to confirm that the intranasal administration of Aβ1-6A2V(D) to injured mice allows the efficient distribution of the peptide in the brain tissue. Brains from injured 3xTg-AD mice were used to prepare […] sections (14 μm thickness) at -20°C in a cryostat. Fourteen µm coronal sections of fresh-frozen brains were cut and serially collected from bregma +0.8 mm to -2.7 mm at 700 µm intervals for MALDI analysis and Cresyl violet staining to pair Aβ1-6A2V(D) biodistribution to anatomical structures. […]

BACE = target: T1, BACE (Homo sapiens, UniProt P56817); assay: BACE1 Inhibitor Screening Kit in vitro; format: biochemical; settings: BACE1 Inhibitor Screening Kit ab283408, 60 min at 37 °C, fluorescence Ex/Em 345/500 nm; read-out: IC50 for inhibition of BACE activity in vitro
T1 construct: purchased Abcam ab283408
Protocol: The ability of Aβ1-6A2V(D) to inhibit BACE activity was measured in vitro as described in the BACE1 Inhibitor Screening Kit ab283408 (Abcam, Cambridge, UK). Increasing concentrations of Aβ1-6A2V(D) were employed. Fluorescence was read for 60 min at 37°C at Ex/Em= 345/500 nm using a spectrophotometer (Infinite M200, Tecan, Männedorf, Switzerland). BACE activity was measured in the ipsilateral cortex of 3xTg-AD TBI mice treated with or without the peptide using the β-Secretase Activity Fluorometric Assay Kit MAK237 (Sigma Aldrich, St. Louis, USA). The protein concentration of the samples was analyzed using the BCA assay, as previously described. The samples were diluted to obtain a final concentration of 25 µg proteins/50 µL and then processed according to the kit instructions. Fluorescence was read at Ex/Em = 355/495 nm.
Supplementary Figure 7. Effect of Aβ1-6A2V(D) on the BACE activity. (A) Dose-dependent inhibitory effect of Aβ1-6A2V(D) on BACE activity determined in vitro. (B) BACE activity determined in the brain homogenates of 3xTg-AD TBI mice (N = 3) treated (TBI Aβ1-6A2V(D)) or not (TBI vehicle) with 50 mg/kg b.w. Aβ1-6A2V(D) and sacrificed 24 h after the last administration. Data are mean ± SD, one-way ANOVA, and Bonferroni’s post hoc test.

C. elegans = settings: in vivo; cited from earlier work
[2] = ref [16]; cited from earlier work
[3] = system: tau (P301L mouse brain homogenate); assay: Western blot of total tau level in P301L brain lysate; format: biochemical, human tau with P301L mutation, JNPL3 mice; settings: 50 µM, 2 h at 25 °C, 30 µg protein/100 µL, PBS pH 7.4, DAKO/actin band; mean ± SD, N = 3, p < 0.05
Source text: Male JNPL3 mice expressing 0N4R human tau with the P301L mutation (P301L) were obtained from Taconic Biosciences (New York, USA) (Tau Model 2508). Controls were non-transgenic (Non-tg) male mice with the same mixed C57BL/6, DBA/2, SW genetic background as P301L mice. Triple transgenic mice harboring human PS1(M146 V), APP(SW), and MAPT(P301L) transgenes, referred to as 3xTg-AD, were kindly provided by Dr. Oddo [34]. Male and female C57BL/6 J mice, referred to as wild type (WT), were purchased from Envigo (Italy).
Fig. 2 Effect of Aβ1-6A2V-TAT(D) on the toxicity caused in C. elegans by misfolded tau in P301L and TBI brain homogenates. A Brains from P301L mice were homogenized in 10 mM PBS, pH 7.4, and given to worms alone or in the presence of Aβ1-6A2V-TAT(D). B Worms were administered with brain homogenate (30 µg protein/100 worms/100 µL) in the absence or presence of Aβ1-6A2V-TAT(D) (0-200 µM). […] E Representative western blotting showing the total level of tau and tau quantification expressed as the mean volume of the DAKO band immunoreactivity/actin band. […] The reaction was then stopped, and samples were analyzed by western blot. […]
Lysates from brain homogenates of P301L mice (30 µg protein/100 µL) incubated for 2 h at 25°C with 50 µM Aβ1-6A2V-TAT(D), 50 µM Aβ1-6A2V(D), 50 µM TAT or 10 mM PBS, pH 7.4, were analyzed by immunoblotting using 10% SDS-PAGE gel and Western blotting analysis. […]

Aβ soluble protofibrils = settings: ref [3]; cited from earlier work
Source text: Alzheimer’s disease (AD) is a double proteinopathy characterized by amyloid-β (Aβ) and tau pathology and is the most common dementia in older adults. Despite enormous efforts that have been made in the last few decades to find effective therapy, there are still few weapons available to fight this disease. […] Since the approval of aducanumab, ...

T1 sequence (P56817 46-501, species assumed): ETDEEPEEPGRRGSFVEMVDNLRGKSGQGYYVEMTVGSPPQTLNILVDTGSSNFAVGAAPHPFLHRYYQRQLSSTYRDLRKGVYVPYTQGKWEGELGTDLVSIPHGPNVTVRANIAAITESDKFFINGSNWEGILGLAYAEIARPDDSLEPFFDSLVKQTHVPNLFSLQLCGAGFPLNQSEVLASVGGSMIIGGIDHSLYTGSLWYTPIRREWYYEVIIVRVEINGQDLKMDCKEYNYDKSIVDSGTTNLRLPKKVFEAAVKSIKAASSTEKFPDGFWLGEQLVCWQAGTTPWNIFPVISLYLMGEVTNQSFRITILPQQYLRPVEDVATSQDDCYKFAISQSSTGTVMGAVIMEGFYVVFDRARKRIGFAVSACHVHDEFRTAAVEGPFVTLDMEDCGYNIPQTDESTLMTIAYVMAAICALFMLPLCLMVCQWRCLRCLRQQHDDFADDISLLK

With CC(C)[C@@H](NC(=O)[C@H](N)CC(=O)O)C(=O)N[C@H](CCC(=O)O)C(=O)N[C@H](Cc1ccccc1)C(=O)N[C@H](CCCNC(=N)N)C(=O)N[C@H](Cc1c[nH]cn1)C(=O)O [Aβ1-6A2V(D)] (H-[dD][dV][dE][dF][dR][dH]-OH) the “Peptide level in brain areas close to the contusion site, 24 h” value ([1]; intranasal 50 mg/kg b.w., 24 h after administration) was “high levels of peptide still detectable 24 h after the administration”, the “Presence of peptide in brain regions” value ([1]; single intranasal dose 50 mg/kg b.w. 10 min post-injury, 4-h and 24-h) was “present in the cerebral cortex, hippocampus, caudate-putamen, and cerebellum” and the “Peptide level in brain, 72 h” value ([1]; single intranasal dose 50 mg/kg b.w. 10 min post-injury, 72 h after administration) was “not detectable”. For the same molecule, the “Peptide level in ipsi- and contra-lateral hemispheres, up to 48 h” value ([1]; single intranasal dose 50 mg/kg b.w. 10 min post-injury, high levels persisting, although low, up to 48 h) was “high Aβ1-6A2V(D) levels were detected in the ipsi- and contra-lateral hemispheres that persisted, although at low levels, up to 48 h”, the IC50 (BACE) was 126 nM and the “Passage through the worm's membrane” value (C. elegans) was “only in the presence of the TAT sequence, Aβ1-6A2V(D) can pass through the worm’s membrane”. For the same molecule, the “Brain distribution after single intranasal administration, AD mouse” value [2] was “distributed in the AD mouse brain”.

For “GRKKRRQRRR [TAT, TAT48-56(D) (…), reference compound]”, the “Total tau protein level in P301L brain homogenate” value [3] was “but not TAT alone, significantly reduced the tau protein level”.

B1: Lecanemab: a humanized monoclonal antibody that binds with high affinity to Aβ soluble protofibrils (antibody, chains of the INN, looked up, V domains shown)
VH: EVQLVESGGGLVQPGGSLRLSCSASGFTFSSFGMHWVRQAPGKGLEWVAYISSGSSTIYYGDTVKGRFTISRDNAKNSLFLQMSSLRAEDTAVYYCAREGGYYYGRSYYTMDYWGQGTTVTVSS
VL: DVVMTQSPLSLPVTPGAPASISCRSSQSIVHSNGNTYLEWYLQKPGQSPKLLIYKVSNRFSGVPDRFSGSGSGTDFTLRISRVEAEDVGIYYCFQGSHVPPTFGPGTKLEIK
In the case of B1, the “Binding affinity to Aβ soluble protofibrils” value (Aβ soluble protofibrils) is given as “binds with high affinity to Aβ soluble protofibrils”.

Reference: paper PMC10611578, “Aβ1-6A2V(D) peptide, effective on Aβ aggregation, inhibits tau misfolding and protects the brain after traumatic brain injury” (Molecular Psychiatry, 2023)
